Reference: article PMC10301432, “Antiplasmodial, Trypanocidal, and Genotoxicity In Vitro Assessment of New Hybrid α,α-Difluorophenylacetamide-statin Derivatives” (Pharmaceuticals, 2023)

How the values were obtained:
[1] = test system: human hepatoma cell line (HepG2); assay: in vitro; type: cell-based; conditions: preliminary cytotoxicity, HepG2
Summary of the method: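 Cells grown in MEM with 10% FBS at 37 °C, 5% CO2, and seeded at 1 × 10^4/well. After treatment, viability read by WST-1 over 3 h incubation, absorbance at 440 nm.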

[2] = Salmonella/microsome assay, TA100; conditions: Salmonella enterica serovar Typhimurium, S. typhimurium TA100 without S9 mix, pH 7.4
[3] = Salmonella/microsome assay, TA97; conditions: Salmonella enterica serovar Typhimurium, S. typhimurium TA97 without S9 mix, pH 7.4
Description: (§1) Salmonella enterica serovar Typhimurium (S. typhimurium) strains TA97, TA98, TA100, TA104 and TA102 from the authors’ stock were used as described in the mutagenicity assay.
(§2) To determine the cytotoxic effects, after 30 min pre-incubation, the assay mixtures were diluted in 0.9% NaCl (w/v) to obtain a suspension containing 2 × 10^2 cells/mL. […] The plates were then incubated at 37 °C for 24 h and the colonies counted. All the experiments were conducted in triplicate and were repeated at least twice. Statistical differences between the groups were analyzed by a two-way ANOVA (p < 0.05) and Tukey’s post hoc test.

[4] = Salmonella/microsome assay, TA98; conditions: Salmonella enterica serovar Typhimurium, S. typhimurium TA98 without S9 mix, pH 7.4
Description: as §1, §2

Row | Structure (SMILES) | lack of toxic events up to [1] | CC50 at 30 min [2] [µM] | CC50 at 30 min [3] [µM] | CC50 at 30 min [4] [µM]
1 | CC(=O)Nc1ccc(C)cc1C(F)(F)C(=O)NCC[C@@H]1C[C@H](CC(=O)OC(C)(C)C)OC(C)(C)O1 [Compound 13b, tert-Butyl 2-((4R,6R)-6-(2-(2-(2-acetamido-5-methylphenyl)-2,2-difluoroacetamido)ethyl)-2,2-dimethyl-1,3-dioxan-4-yl)acetate] | up to 400 μM | > 1500 | > 1500 | > 1500
2 | CC(=O)Nc1ccc(Cl)cc1C(F)(F)C(=O)NCC[C@@H]1C[C@H](CC(=O)OC(C)(C)C)OC(C)(C)O1 [Compound 13c, tert-Butyl 2-((4R,6R)-6-(2-(2-(2-acetamido-5-chlorophenyl)-2,2-difluoroacetamido)ethyl)-2,2-dimethyl-1,3-dioxan-4-yl)acetate] | up to 400 μM | – | – | –
3 | CC(=O)Nc1ccc(Br)cc1C(F)(F)C(=O)NCC[C@@H]1C[C@H](CC(=O)OC(C)(C)C)OC(C)(C)O1 [Compound 13d, tert-Butyl 2-((4R,6R)-6-(2-(2-(2-acetamido-5-bromophenyl)-2,2-difluoroacetamido)ethyl)-2,2-dimethyl-1,3-dioxan-4-yl)acetate] | – | 120 ± 14.1 | 1490 ± 36.5 | 1260 ± 46.8
